Active and inactive are the calls of the source. Rule as the data show it, for most assays here: actives have a measured EC50 and inactives only a lower limit.
Tests used:
[1] = control 3'UTR Renilla luciferase suppression, dose response, counter-screen for Shn3 inhibitor project, cell-based, Clone20-Shn3RL, cherry-picked (AID 624133); type: functional
[2] = HepG2 cell cytotoxicity, dose response, cytotoxicity control for Shn3 inhibitor project, CellTiter-Glo, cherry-picked (AID 624134); type: functional, cell-based
[3] = Shn3 3'UTR reporter inhibitors, dose response, cell-based, Clone20 osteoblasts, firefly luciferase, cherry-picked (AID 624132); type: functional;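 also: firefly luciferase luminescence from reporter carrying the Shn3 3'UTR in osteoblasts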
INS1 = test: beta cell apoptosis inhibitors, cytokine rescue, dose response, luminescence, retest (AID 449756); type: functional, cell-based; settings: Rattus norvegicus, INS1;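 also: cell death triggered by IL-1 beta plus TNF-alpha plus IFN-gamma mixture; protective hits raise ATP signal compared with cytokine alone wells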
Paired box protein Pax-8 = Paired box protein Pax-8 (Homo sapiens, UniProt Q06710); test: inhibitors of PAX8-driven TPO luciferase reporter, dose response, RMG-I cells, cherry-pick (AID 687027); type: functional, cell-based;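 also: luciferase reporter driven by Pax8 target thyroperoxidase promoter measured by SteadyGlo luminescence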
Chain of Paired box protein Pax-8 (Q06710 whole entry): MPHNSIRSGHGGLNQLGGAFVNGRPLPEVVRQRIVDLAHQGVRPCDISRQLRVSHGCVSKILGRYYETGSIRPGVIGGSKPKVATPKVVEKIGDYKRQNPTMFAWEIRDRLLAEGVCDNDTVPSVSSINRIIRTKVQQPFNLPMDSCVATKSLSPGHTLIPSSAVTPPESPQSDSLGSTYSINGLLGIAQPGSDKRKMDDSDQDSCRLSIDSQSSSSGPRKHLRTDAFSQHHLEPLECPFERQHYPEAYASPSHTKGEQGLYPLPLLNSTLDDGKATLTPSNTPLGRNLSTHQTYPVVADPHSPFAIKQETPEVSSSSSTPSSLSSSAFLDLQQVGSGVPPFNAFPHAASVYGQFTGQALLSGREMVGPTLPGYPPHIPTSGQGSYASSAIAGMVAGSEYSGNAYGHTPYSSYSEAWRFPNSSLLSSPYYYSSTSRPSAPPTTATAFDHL

[4] = inhibitors of SNCA 5'UTR-driven reporter translation, confirmation, H4 neuroglioma cells, luminescence (AID 1988); type: functional, cell-based
[5] = inhibitors of firefly luciferase expression or activity, dose response, H4 neuroglioma cells, luminescence (AID 1990); type: functional, cell-based
[6] = biological target: T1, Heat shock factor protein 1 (Mus musculus, UniProt P38532); test: inhibition of MG132-induced HSE-luciferase signal, confirmation, cell-based, NIH3T3, luminescence, dose retest (AID 2382); type: functional;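 also: NIH3T3 fibroblasts with HSF1-driven luciferase reporter stressed by proteasome inhibitor MG132; luminescence from HSF1-driven luciferase expression after 8 hours of MG132 stress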
T1 sequence (P38532 whole entry): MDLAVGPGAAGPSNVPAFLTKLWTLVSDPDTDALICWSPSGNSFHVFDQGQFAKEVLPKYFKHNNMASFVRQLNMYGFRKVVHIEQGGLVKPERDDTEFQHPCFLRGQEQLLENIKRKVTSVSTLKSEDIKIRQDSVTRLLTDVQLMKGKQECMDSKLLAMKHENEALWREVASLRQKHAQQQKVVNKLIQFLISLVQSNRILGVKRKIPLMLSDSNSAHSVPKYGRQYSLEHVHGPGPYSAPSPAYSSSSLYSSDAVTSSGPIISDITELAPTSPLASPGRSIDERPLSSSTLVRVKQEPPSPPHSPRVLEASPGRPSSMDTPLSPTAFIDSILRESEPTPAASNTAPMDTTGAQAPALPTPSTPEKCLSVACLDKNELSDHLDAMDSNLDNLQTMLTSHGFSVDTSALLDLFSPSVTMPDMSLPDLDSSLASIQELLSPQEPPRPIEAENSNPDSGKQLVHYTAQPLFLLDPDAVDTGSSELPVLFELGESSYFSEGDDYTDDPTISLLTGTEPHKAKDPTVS

[7] = Luminescence Cell-Based Dose Response HTS to Identify Inhibitors of 5'UTR Stem-Loop Driven Prion Protein mRNA Translation in H4 Neuroglioblastoma Cells. [Related pubchem assays: 1827 (Project Summary), 1813 (Primary HTS)]; type: functional
[8] = HEp-2 cell cytotoxicity, dose response, cytotoxicity control for RSV inhibitor project, HTS (AID 2410); type: functional; settings: human respiratory syncytial virus
cells [9] = type: functional, cell-based
cells [10] = type: functional, cell-based; remark: listed apart in the source
Streptokinase A = biological target: T2, Streptokinase A (Streptococcus pyogenes serotype M1, UniProt P10520); test: S. pyogenes streptokinase expression inhibitors, potency, dose response, plasminogen activation absorbance, OD405 (AID 1914); type: functional, Streptococcus pyogenes M1 GAS;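 also: secreted streptokinase activity via plasminogen activation per viability signal from cell pellet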
T2 sequence (P10520 whole entry): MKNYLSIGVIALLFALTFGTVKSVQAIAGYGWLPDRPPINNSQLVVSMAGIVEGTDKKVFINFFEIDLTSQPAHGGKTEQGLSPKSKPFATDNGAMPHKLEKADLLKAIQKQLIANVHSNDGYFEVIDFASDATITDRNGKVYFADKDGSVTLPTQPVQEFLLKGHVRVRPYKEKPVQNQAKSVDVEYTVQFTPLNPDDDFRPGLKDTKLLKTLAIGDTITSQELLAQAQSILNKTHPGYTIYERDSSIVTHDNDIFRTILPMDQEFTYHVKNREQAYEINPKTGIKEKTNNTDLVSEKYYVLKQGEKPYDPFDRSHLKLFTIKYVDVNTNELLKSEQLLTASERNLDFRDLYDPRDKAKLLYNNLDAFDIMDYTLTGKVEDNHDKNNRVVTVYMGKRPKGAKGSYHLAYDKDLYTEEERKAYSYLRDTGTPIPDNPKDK

Streptococcus = test: Group A Streptococcus viability loss, dose response, counter-screen for streptokinase expression inhibitor project, luminescence, BacTiterGlo (AID 1915); type: functional, organism-based;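 also: potency for reduction of bacterial viability or growth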
Cytochrome P450 2C9 = Cytochrome P450 2C9 (Homo sapiens, UniProt P11712)
Chain of Cytochrome P450 2C9 (P11712 whole entry): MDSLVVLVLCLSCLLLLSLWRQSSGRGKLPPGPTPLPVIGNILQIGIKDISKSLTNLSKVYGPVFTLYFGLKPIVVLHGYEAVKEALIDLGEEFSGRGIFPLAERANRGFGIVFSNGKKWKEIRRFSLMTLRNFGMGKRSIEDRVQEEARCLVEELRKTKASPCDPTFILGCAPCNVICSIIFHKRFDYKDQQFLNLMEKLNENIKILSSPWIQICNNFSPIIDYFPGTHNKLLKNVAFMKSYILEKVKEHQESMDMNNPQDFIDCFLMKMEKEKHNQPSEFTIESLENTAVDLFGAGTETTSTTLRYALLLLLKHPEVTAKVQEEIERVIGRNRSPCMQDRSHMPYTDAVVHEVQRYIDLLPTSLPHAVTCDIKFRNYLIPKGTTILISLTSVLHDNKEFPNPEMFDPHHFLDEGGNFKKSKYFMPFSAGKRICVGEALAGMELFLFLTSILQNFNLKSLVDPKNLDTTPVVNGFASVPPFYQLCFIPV

COc1cc(C(=O)NC2CCCc3c2cnn3-c2ccccc2F)cc(OC)c1OC (stereo not given)
AC50 [1]: 4.13 µM (active) | AC50 [2]: 6.29 µM (active) | AC50 [3]: 0.781 µM (active)

O=C(Nc1ccc(F)cc1)c1cccnc1
AC50 (INS1): 14.5 µM (active)

O=S(=O)(c1ccccc1F)N1CC[C@@H]2[C@@H](CO)Nc3ccc(C4=CCCCC4)cc3[C@@H]21
AC50 (Paired box protein Pax-8): 10.5 µM (active)

COC(=O)C1=C(N)Oc2cc(N(C)C)ccc2C1c1ccccc1OC (stereo not given)
EC50 [4]: 6.94 µM (active) | EC50 [5]: 11.3 µM (active)

O=C(COC(=O)Cc1ccsc1)NCC12CC3CC(CC(C3)C1)C2
EC50 [6]: > 195 µM (not active)

COc1ccc(C2(C)NC(=O)N(CC(=O)Nc3ccc4c(c3)OCO4)C2=O)cc1OC (stereo not given)
EC50 [4]: > 120 µM (not active) | EC50 [5]: > 120 µM (not active) | EC50 [7]: > 120 µM (not active)

O=C(Nc1ccccn1)C1CCN(c2ncnc3c2nc2n3CCCCC2)CC1
CC50 [8]: 18.5 µM (active)

Cc1cc(C)[n+](Cc2ccccc2)cc1C(N)=O
EC50 (cells [9]): > 350 µM (not active) | EC50 (cells [10]): > 350 µM (not active)

CN(Cc1ccccc1)C(=O)c1cccc(NC(=O)Cc2ccc([N+](=O)[O-])cc2)c1
AC50 [2]: > 70 µM (inactive) | AC50 [3]: 16.8 µM (active)

CCOc1ccc(C2N(c3ccc(F)cc3)C(=O)C3CCCN32)cc1OC (stereo not given)
EC50 [6]: > 195 µM (not active)

Cc1ccc(F)cc1NC(=O)CSc1nc(Nc2ccccc2)nc(N2CCOCC2)n1
EC50 [4]: 15.6 µM (active) | EC50 [5]: 14.8 µM (active) | EC50 [7]: > 120 µM (not active)

Cc1ccc(S(=O)(=O)c2cc3c(=O)n4cccc(C)c4nc3n(Cc3ccncc3)c2=N)cc1
EC50 [4]: > 120 µM (not active) | EC50 [5]: > 120 µM (not active) | EC50 [7]: > 120 µM (not active)

COc1cccc(C(=O)CN2C(=O)C(C)(C)Oc3ccc(C(=O)N4CCOCC4)cc32)c1
EC50 (cells [9]): > 350 µM (not active) | EC50 (cells [10]): > 350 µM (not active)

CCCC(=O)C1=C(NCc2ccccc2)CC(C)(C)CC1=O
EC50 (cells [9]): > 350 µM (not active) | EC50 (cells [10]): > 350 µM (not active)

CCOc1cc2sc(N3CCC(C(=O)NCCCN4CCCC4=O)CC3)nc2cc1Br
CC50 [8]: 19.8 µM (active)

CCOC(=O)c1c(N)n(CCCOC(=O)c2ccco2)c2nc3ccccc3nc12
EC50 [4]: 8.24 µM (active) | EC50 [5]: > 120 µM (not active) | EC50 [7]: > 120 µM (not active)

Cn1/c(=N/C(=O)C2CCCCC2)sc2cc([N+](=O)[O-])ccc21
CC50 [8]: > 50 µM (active)

CCN(CC)S(=O)(=O)c1ccc(C)c(NC(=S)N2CCN(C/C=C/c3ccccc3)CC2)c1
AC50 [1]: 2.53 µM (active) | AC50 [2]: 67.5 µM (active) | AC50 [3]: 2.55 µM (active)

O=C(Nc1ccc(Cl)c(Cl)c1)c1cccc(S(=O)(=O)NCc2cccnc2)c1
AC50 [2]: 6.59 µM (active) | AC50 [3]: 5.39 µM (active)

CC(=O)Nc1ccc(CN2CCC(CO)(CCOc3ccccc3)CC2)cc1
EC50 [6]: > 195 µM (not active)

CCO[C@@H]1OC(C(=O)NCc2ccccc2)=C[C@H](c2ccc3c(c2)OCO3)[C@H]1CCCO
EC50 [6]: > 195 µM (not active)

CC(C)(C)c1csc(NNC(=O)c2ccc(Br)cc2)n1
EC50 (Streptokinase A): > 150 µM (not active) | EC50 (cells [9]): 21 µM (active) | EC50 (cells [10]): > 350 µM (not active) | EC50 (Streptococcus): > 150 µM (not active)

Cc1ccccc1OCC(=O)Nc1ccc(N2CCN(C)CC2)c(Cl)c1
EC50 (cells [9]): > 350 µM (not active) | EC50 (cells [10]): > 350 µM (not active)

COc1ccc(-c2nnc(NC(=O)c3ccc4c(c3)OCCO4)o2)cc1
EC50 [4]: > 120 µM (not active) | EC50 [5]: > 120 µM (not active) | EC50 [7]: > 120 µM (not active)

CC(=O)C(C)Oc1ccc2c3c(c(=O)oc2c1)CCCCC3 (stereo not given)
CC50 [8]: > 50 µM (active)

O=C(NCc1cccnc1)Nc1ccc([N+](=O)[O-])cc1
AC50 (INS1): 11.8 µM (active)

CC(=O)c1cccc(Nc2nc(-c3ccccc3)cs2)c1
CC50 [8]: 21.2 µM (active)

COc1cccc(N2CCN(CC(=O)Nc3ccc(SC(F)F)cc3)CC2)c1
EC50 [4]: > 120 µM (not active) | EC50 [5]: > 120 µM (not active) | EC50 [7]: > 120 µM (not active)

COc1ccc(OC)c(-c2cc(C(=O)N/N=C/c3cc(OC)c(OC)cc3OC)c3ccccc3n2)c1
EC50 [6]: > 195 µM (not active)

C/C(=N\NC1=NCCN1)c1ccc(N)c([N+](=O)[O-])c1
EC50 [6]: > 195 µM (not active)

Cc1cccc2sc(NC(=O)C3CSC4(C)CCC(=O)N34)nc12 (stereo not given)
EC50 [4]: > 120 µM (not active) | EC50 [5]: > 120 µM (not active) | EC50 [7]: > 120 µM (not active)

COc1ccccc1NC(=O)CN(C)S(=O)(=O)c1cccc2cccnc12
EC50 (cells [9]): > 350 µM (not active) | EC50 (cells [10]): > 350 µM (not active)

CO/C(O)=C1/C(C)=Nc2c(c(=O)n(C)c(=O)n2C)C1c1cccc(O)c1 (stereo not given)
EC50 [6]: 27.8 µM (active)

O=C1C=C(c2ccnc3cc(Cl)ccc23)C[C@@H](c2ccc3c(c2)OCO3)C1
AC50 [1]: 0.312 µM (active) | AC50 [2]: 27.6 µM (active) | AC50 [3]: 1.36 µM (active)

Cc1cccc2[nH]c(CN(C)C(=O)C3CCC(=O)N(C4CC4)C3)nc12 (stereo not given)
EC50 (cells [9]): > 350 µM (not active) | EC50 (cells [10]): > 350 µM (not active)

CCc1noc(C)c1C(=O)Oc1ccc(N(C)S(=O)(=O)c2ccccc2)cc1
CC50 [8]: 26.2 µM (active)

CCn1nc(NS(=O)(=O)c2ccc(NC(C)=O)cc2)c2cc3cccc(C)c3nc21
EC50 (cells [9]): > 350 µM (not active) | EC50 (cells [10]): > 350 µM (not active)

Cc1c(C(=O)C(=O)NCc2cccs2)c2ccccc2n1C
EC50 [6]: > 195 µM (not active)

CCOC(=O)c1oc2ccccc2c1NC(=O)CN1CCN(C)CC1
EC50 [4]: 7 µM (active) | EC50 [5]: 10.9 µM (active) | EC50 [7]: 17.6 µM (active)

OCc1nn2c(c1Br)NC(c1ccccc1)CC2C(F)(F)F (stereo not given)
EC50 [6]: > 195 µM (not active)

CCCCN(C(=O)c1ccc([N+](=O)[O-])s1)c1c(N)n(CCCC)c(=O)[nH]c1=O
EC50 [6]: > 195 µM (not active)

CCN(CC)C(=O)c1cc2cc([N+](=O)[O-])ccc2s1
EC50 [6]: > 195 µM (not active) | AC50 (Cytochrome P450 2C9): 17.8 µM (inconclusive)

O=C(O)COc1ccccc1/C=N/NC(=O)c1ccc2c(c1)OCCO2
EC50 [6]: > 195 µM (not active)

CCOc1ccc(Oc2nc(NCC(C)C)nc(N(C)C)n2)nn1
EC50 [4]: > 120 µM (not active) | EC50 [5]: 115 µM (active) | EC50 [7]: > 120 µM (not active)

CC(=O)c1cccc(NS(=O)(=O)c2ccc(N/C=C/C(=O)c3ccc(F)cc3)cc2)c1
AC50 (INS1): 4.36 µM (active)

Cc1c(C(=O)NCc2ccc3c(c2)OCO3)oc2ccc(Br)cc12
CC50 [8]: 19.1 µM (active)

COC(=O)c1sccc1S(=O)(=O)Nc1ccc(N2CCCCC2)cc1
AC50 (INS1): 29 µM (active)

CC(=O)c1c(N2CCN(CCO)CC2)nc(=S)n(-c2ccccc2)c1C
EC50 [6]: > 195 µM (not active)

Cc1ccc(S(=O)(=O)N(C)C)cc1NC(=O)COC(=O)/C(=C/c1ccc(F)cc1)c1cccs1
CC50 [8]: 29.7 µM (active)

O=S(=O)(c1ccc2c(c1)OCCO2)N1CCC(c2nc(O)c3nnn(Cc4cccc(F)c4)c3n2)CC1
CC50 [8]: 31.9 µM (active)

COc1ccc(OCC(=O)NNC(=S)NC(=O)c2ccc(Br)o2)cc1
AC50 [1]: 12.4 µM (active) | AC50 [2]: > 70 µM (inactive) | AC50 [3]: 5.27 µM (active)

CN(C)c1ccc(S(=O)(=O)NCC(=O)OCC(=O)Nc2cc(Cl)cc(Cl)c2)cc1[N+](=O)[O-]
EC50 (cells [9]): > 350 µM (not active) | EC50 (cells [10]): > 350 µM (not active)

COc1ccc(OC)c(Nc2nc(NCCC(C)C)nc(N)c2[N+](=O)[O-])c1
EC50 (cells [9]): > 350 µM (not active) | EC50 (cells [10]): > 350 µM (not active)
